Data published in ChEMBL document CHEMBL5543083, “3,5-Disubstituted-thiazolidine-2,4-dione hybrids as antidiabetic agents: Design, synthesis, in-vitro and In vivo evaluation” (Eur J Med Chem, 2024).
pIC50: −log10 of the molar value. Activity calls are given as the source filed them. No cut-off for these calls is given here.

Legend:
[1] = molecular target: Alpha-glucosidase (Saccharomyces cerevisiae S288c, UniProt P53341+P38158+P07265); experiment: Inhibition of yeast Alpha glucosidase 4-nitrophenyl-alpha-D-glucopyranoside incubated for 15 to 20 mins by Bio-rad microplate reader analysis; type: protein assay
[2] = molecular target: T1, Alpha-amylase (Sus scrofa domesticus, UniProt Q7M328); experiment: Inhibition of porcine pancreatic Alpha-amylase using starch as substrate preincubated for 10 mins followed by substrate addition and measured after 15 mins by Bio-rad microplate reader analysis; conditions: read-out: IC50
T1 sequence (Q7M328 whole entry): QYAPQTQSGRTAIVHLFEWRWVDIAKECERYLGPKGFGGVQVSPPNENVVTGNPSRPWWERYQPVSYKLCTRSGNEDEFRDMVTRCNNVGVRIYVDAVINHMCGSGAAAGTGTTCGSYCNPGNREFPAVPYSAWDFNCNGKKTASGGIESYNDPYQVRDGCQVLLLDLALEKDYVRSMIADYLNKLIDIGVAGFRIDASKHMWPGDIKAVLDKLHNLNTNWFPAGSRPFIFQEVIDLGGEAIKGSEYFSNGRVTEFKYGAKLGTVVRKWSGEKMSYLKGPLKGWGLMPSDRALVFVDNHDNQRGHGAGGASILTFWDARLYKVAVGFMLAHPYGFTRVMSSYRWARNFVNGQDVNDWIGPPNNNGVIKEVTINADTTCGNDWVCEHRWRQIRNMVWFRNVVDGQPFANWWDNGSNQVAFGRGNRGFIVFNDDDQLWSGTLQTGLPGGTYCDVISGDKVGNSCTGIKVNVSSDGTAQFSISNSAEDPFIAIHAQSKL

[3] = Antioxidant activity assessed as DPPH radical scavenging activity measured for 30 mins by spectrophotometric analysis; type: functional; conditions: read-out: IC50
[4] = system: PANC-1; experiment: Cytotoxicity against human PANC-1 cells assessed as inhibition of cell growth; type: functional, cell-based; conditions: Homo sapiens, PANC-1; read-out: IC50
[5] = system: PANC-1; experiment: Induction of ROS production in high glucose-induced human PANC-1 cells assessed as maximum fluorescence intensity at 10 uM incubated for 30 mins DCFDA-staining based flow cytometry analysis (reference value: 15.09); type: functional; conditions: 0.5 h
[6] = system: Rattus norvegicus; experiment: Antidiabetic activity against streptozotocin-induced Wistar rat assessed as decrease in blood glucose level at 10 mg/kg, po measured at 30 mins by oral glucose test; type: functional, organism-based
[7] = system: Rattus norvegicus; experiment: Antidiabetic activity against streptozotocin-induced Wistar rat assessed as decrease in blood glucose level at 10 mg/kg, po measured at 60 mins by oral glucose test; type: functional, organism-based
[8] = Toxicity in Wistar rat assessed as decrease in body weight at 10 mg/kg, po measured on day 14; type: organism-based; conditions: in vivo, 336 h, time 14 day
[9] = Toxicity in Wistar rat assessed as decrease in body weight at 10 mg/kg, po measured on day 35; type: organism-based; conditions: in vivo, 840 h, time 35 day
[10] = system: Rattus norvegicus; experiment: Antidiabetic activity against streptozotocin-induced Wistar rat assessed as effect on blood glucose level at 10 mg/kg, po measured on day 1; type: functional, organism-based; conditions: time 1.0 day
[11] = system: Rattus norvegicus; experiment: Antidiabetic activity against streptozotocin-induced Wistar rat assessed as effect on blood glucose level at 10 mg/kg, po measured on day 4; type: functional, organism-based; conditions: time 4.0 day
[12] = system: Rattus norvegicus; experiment: Antidiabetic activity against streptozotocin-induced Wistar rat assessed as increase in PPAR-gamma level at 10 mg/kg, po measured upto 35 days by ELISA analysis; type: functional, organism-based; conditions: time <= 35.0 day
[13] = system: Rattus norvegicus; experiment: Antidiabetic activity against streptozotocin-induced Wistar rat assessed as increase in serum amylase level at 10 mg/kg, po measured upto 35 days by ELISA analysis; type: functional, organism-based; conditions: time <= 35.0 day
[14] = system: Rattus norvegicus; experiment: Antidiabetic activity against Wistar rat assessed as decrease in total cholesterol level at 10 mg/kg, po measured upto 35 days; type: functional, organism-based; conditions: time <= 35.0 day
[15] = system: Rattus norvegicus; experiment: Antidiabetic activity against streptozotocin-induced Wistar rat assessed as decrease in HDL level at 10 mg/kg, po measured upto 35 days; type: functional, organism-based; conditions: time <= 35.0 day
[16] = system: Rattus norvegicus; experiment: Antidiabetic activity against streptozotocin-induced Wistar rat assessed as decrease in triglyceride level at 10 mg/kg, po measured upto 35 days; type: functional, organism-based; conditions: time <= 35.0 day
[17] = system: Rattus norvegicus; experiment: Antidiabetic activity against streptozotocin-induced Wistar rat assessed as decrease in MDA level at 10 mg/kg, po measured upto 35 days; type: functional, organism-based; conditions: time <= 35.0 day
[18] = system: Rattus norvegicus; experiment: Antidiabetic activity against streptozotocin-induced Wistar rat assessed as decrease in SOD level at 10 mg/kg, po measured upto 35 days; type: functional, organism-based; conditions: time <= 35.0 day
[19] = system: Rattus norvegicus; experiment: Antidiabetic activity against streptozotocin-induced Wistar rat assessed as effect on glutathione level at 10 mg/kg, po measured upto 35 days; type: functional, organism-based; conditions: time <= 35.0 day
[20] = system: Rattus norvegicus; experiment: Antidiabetic activity against Wistar rat assessed as effect on glutathione level at 10 mg/kg, po measured upto 35 days; type: functional, organism-based; conditions: time <= 35.0 day
[21] = system: Rattus norvegicus; experiment: Antidiabetic activity against streptozotocin-induced Wistar rat assessed as change in blood urea nitrogen level at 10 mg/kg, po measured upto 35 days; type: functional, organism-based; conditions: time <= 35.0 day
[22] = system: Rattus norvegicus; experiment: Antidiabetic activity against Wistar rat assessed as increase in serum creatine level at 10 mg/kg, po measured upto 35 days; type: functional, organism-based; conditions: time <= 35.0 day
[23] = system: Rattus norvegicus; experiment: Antidiabetic activity against streptozotocin-induced Wistar rat assessed as increase in serum ALP level at 10 mg/kg, po measured upto 35 days; type: functional, organism-based; conditions: time <= 35.0 day
[24] = system: Rattus norvegicus; experiment: Antidiabetic activity against streptozotocin-induced Wistar rat assessed as change in serum SGOT level at 10 mg/kg, po measured upto 35 days; type: functional, organism-based; conditions: time <= 35.0 day
[25] = system: Rattus norvegicus; experiment: Antidiabetic activity against streptozotocin-induced Wistar rat assessed as change in serum SGPT level at 10 mg/kg, po measured upto 35 days; type: functional, organism-based; conditions: time <= 35.0 day
[26] = system: Rattus norvegicus; experiment: Antidiabetic activity against streptozotocin-induced Wistar rat assessed as increase in TNF-alpha level in Pancreas at 10 mg/kg, po measured upto 35 days; type: functional, organism-based; conditions: time <= 35.0 day
[27] = system: Rattus norvegicus; experiment: Antidiabetic activity against streptozotocin-induced Wistar rat assessed as increase in IL1-beta level in Pancreas at 10 mg/kg, po measured upto 35 days; type: functional, organism-based; conditions: time <= 35.0 day
[28] = Toxicity in streptozotocin-induced Wistar rat assessed as changes in organ to body weight ratio at 10 mg/kg, po measured up to 35 days; type: organism-based; conditions: in vivo, 840 h, time < 35 day
[29] = Toxicity in streptozotocin-induced Wistar rat assessed as decrease in basophil count at 10 mg/kg, po measured up to 35 days; type: organism-based; conditions: in vivo, 840 h, time < 35 day
[30] = Toxicity in streptozotocin-induced Wistar rat assessed as decrease in eosinophil count at 10 mg/kg, po measured up to 35 days; type: organism-based; conditions: in vivo, 840 h, time < 35 day
[31] = Toxicity in streptozotocin-induced Wistar rat assessed as change in blood lymphocyte count at 10 mg/kg, po measured up to 35 days; type: organism-based; conditions: in vivo, 840 h, time < 35 day
[32] = Toxicity in streptozotocin-induced Wistar rat assessed as morphological changes in pancrease at 10 mg/kg, po measured up to 35 days; type: organism-based; conditions: in vivo, 840 h, time < 35 day
[33] = Toxicity in streptozotocin-induced Wistar rat assessed as morphological changes in kidney at 10 mg/kg, po measured up to 35 days; type: organism-based; conditions: in vivo, 840 h, time < 35 day
[34] = Toxicity in streptozotocin-induced Wistar rat assessed as decrease in tubular necrosis in kidney at 10 mg/kg, po measured up to 35 days; type: organism-based; conditions: in vivo, 840 h, time < 35 day
[35] = Toxicity in streptozotocin-induced Wistar rat assessed as decrease in dilation of renal tubules in kidney at 10 mg/kg, po measured up to 35 days; type: organism-based; conditions: in vivo, 840 h, time < 35 day
[36] = Toxicity in streptozotocin-induced Wistar rat assessed as morphological changes in liver at 10 mg/kg, po measured up to 35 days; type: organism-based; conditions: in vivo, 840 h, time < 35 day
[37] = system: Rattus norvegicus; experiment: Antidiabetic activity against streptozotocin-induced Wistar rat assessed as effect on serum catalase level at 10 mg/kg, po measured upto 35 days; type: functional, organism-based; conditions: time <= 35.0 day
[38] = system: Rattus norvegicus; experiment: Antidiabetic activity against streptozotocin-induced Wistar rat assessed as change in uric acid level at 10 mg/kg, po measured upto 35 days; type: functional, organism-based; conditions: time <= 35.0 day
[39] = system: Rattus norvegicus; experiment: Antidiabetic activity against streptozotocin-induced Wistar rat assessed as increase in serum creatine level at 10 mg/kg, po measured upto 35 days; type: functional, organism-based; conditions: time <= 35.0 day

Row | SMILES | IC50 [1] | pIC50 [2] | pIC50 [3] | pIC50 [4] | Flu intensity [5] | Activity [6] | Activity [7] | Activity [8] | Activity [10] | Activity [11] | Activity [13] | Activity [23] | Activity [24] | Activity [25] | Activity [26] | Activity [27] | Activity [32] | Activity [36] | further results
1 | CCOc1cc(/C=C2\SC(=O)N(Cc3cccc([N+](=O)[O-])c3)C2=O)ccc1O | 10.33 µM | 4.99 | 4.83 | 3.68 | 1324 | Active | Active | Non-Toxic | Active | Active | Active | Active | Active | Active | Active | Active | Non-Toxic | Non-Toxic | Activity [9]: Toxic; Activity [12]: Active; Activity [14]: Active; Activity [15]: Active; Activity [16]: Active; Activity [17]: Active; Activity [18]: Active; Activity [19]: inactive; Activity [20]: Active; Activity [21]: Active; Activity [22]: Active; Activity [28]: Non-Toxic; Activity [29]: Non-Toxic; Activity [30]: Non-Toxic; Activity [31]: Non-Toxic; Activity [33]: Non-Toxic; Activity [34]: Non-Toxic; Activity [35]: Non-Toxic
2 | O=C1S/C(=C\c2ccc(Cl)cc2Cl)C(=O)N1Cc1cccc([N+](=O)[O-])c1 | 20.94 µM | 4.62 | 4.63 | 3.82 | 1474 | Active | Active | Non-Toxic | Active | Active | Active | Active | inactive | inactive | Active | Active | Non-Toxic | Non-Toxic | Activity [37]: Active; Activity [38]: Active; Activity [39]: Active
